Read-outs that look alike come from different tables or passages of the source.
How the values were obtained:
replicon cells (1b-Con1) = experiment: Replicon activity assay (1b-Con1 replicon cells, real-time RT-PCR); type: cell-based, HCV; details: Hepatitis C virus, 72 h, read-out: Replicon (1b) EC50
replicon cells [1] = test system: replicon cells
[2] = target: HCV NS5B RNA-dependent RNA polymerase (1b-BKΔ55) (Hepatitis C virus genotype 1b, UniProt P26663); experiment: biochemical
replicon cells [3] = experiment: Cytotoxicity in replicon cells (MTS assay, CellTiter 96); details: CC50, MTS assay, three days post dosing
HCV replicon cells = experiment: Cell-based HCV replicon assay (replicon RNA by Taqman real time PCR); details: read-out: 1b EC50
[4] = Hepatitis C virus, 72 h, HCV replicon 1b, cells harvested on day 3

Sequence of HCV NS5B RNA-dependent RNA polymerase (1b-BKΔ55) (P26663 2420-2955 limits assumed, stated change not applied): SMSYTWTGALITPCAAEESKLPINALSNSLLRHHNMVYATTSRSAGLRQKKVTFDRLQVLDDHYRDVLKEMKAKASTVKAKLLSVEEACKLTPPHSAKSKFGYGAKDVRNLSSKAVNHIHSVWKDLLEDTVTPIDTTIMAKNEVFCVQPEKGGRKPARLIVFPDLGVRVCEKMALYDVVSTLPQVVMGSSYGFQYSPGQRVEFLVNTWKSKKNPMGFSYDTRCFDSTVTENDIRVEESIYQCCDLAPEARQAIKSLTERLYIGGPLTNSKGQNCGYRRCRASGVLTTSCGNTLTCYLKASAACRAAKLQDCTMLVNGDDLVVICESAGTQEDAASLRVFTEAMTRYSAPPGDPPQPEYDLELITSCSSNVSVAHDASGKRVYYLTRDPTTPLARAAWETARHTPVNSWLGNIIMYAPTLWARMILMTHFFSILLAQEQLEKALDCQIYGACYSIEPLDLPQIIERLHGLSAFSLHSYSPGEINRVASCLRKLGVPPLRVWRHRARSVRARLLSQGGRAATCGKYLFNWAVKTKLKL

SMILES	EC50 (replicon cells (1b-Con1)) [µM]	Cytotoxicity (replicon cells [1]) [µM]	also measured
CCCC(CCC)COC(=O)[C@H](C)NP(=O)(OC[C@H]1O[C@@H](n2ccc(=O)[nH]c2=O)[C@](C)(N=[N+]=[N-])[C@@H]1O)Oc1ccccc1 (stereo partly shown) [drawing 886]	2.1	83	
C[C@@]1(N=[N+]=[N-])[C@H](O)C(COP(=O)(O)OP(=O)(O)OP(=O)(O)O)O[C@H]1n1cnc2c(=O)[nH]c(N)nc21 (stereo partly shown) [Compound 76]			IC50 [2]: 1.7 µM
C[C@@]1(N=[N+]=[N-])[C@H](O)C(COP(=O)(O)OP(=O)(O)OP(=O)(O)O)O[C@H]1n1ccc(N)nc1=O (stereo partly shown) [Compound 75]			IC50 [2]: 10 µM
CCOC(=O)[C@H](C)NP(=O)(OC[C@H]1O[C@@H](n2cnc3c(N4CCC4)nc(N)nc32)[C@](C)(N=[N+]=[N-])[C@@H]1O)Oc1ccccc1 (stereo partly shown) [drawing 882]	1.5	>100	
COc1nc(N)nc2c1ncn2C1O[C@@H]2COP(=O)(OC(C)C)O[C@H]2[C@@]1(C)N=[N+]=[N-] (stereo partly shown)			EC50 (replicon cells (1b-Con1); 1b-Con1 replicon cells, three days post-dosing): 8.3 µM; Cytotoxicity (replicon cells [3]): >100 µM
COC(=O)[C@H](C)NP(=O)(OC[C@H]1O[C@@H](n2cnc3c(NC4CC4)nc(N)nc32)[C@](C)(N=[N+]=[N-])[C@@H]1O)Oc1ccccc1Cl (stereo partly shown) [drawing 883]	1.4	>100	
C[C@H](NP(=O)(OC[C@H]1O[C@@H](n2ccc(=O)[nH]c2=O)[C@](C)(N=[N+]=[N-])[C@@H]1O)Oc1ccc2c(c1)OCO2)C(=O)OCc1ccccc1 (stereo partly shown) [drawing 888]	1.2		
CC(C)OC(=O)[C@H](C)NP(=O)(OC[C@H]1O[C@@H](n2ccc(=O)[nH]c2=O)[C@](C)(N=[N+]=[N-])[C@@H]1O)Oc1ccccc1 (stereo partly shown)	3.1	>100	
CC(C)OC(=O)[C@H](C)NP(=O)(OC[C@H]1O[C@@H](n2ccc(=O)[nH]c2=O)[C@](C)(N=[N+]=[N-])[C@@H]1O)Oc1ccc(Cl)c(Cl)c1 (stereo partly shown) [drawing 890]	7.6	42	
CCOc1nc(N)nc2c1ncn2[C@@H]1O[C@H](COP(=O)(N[C@@H](C)C(=O)OC)Oc2ccc(Cl)cc2)[C@@H](O)[C@@]1(C)N=[N+]=[N-] (stereo partly shown) [drawing 887]	0.9	25	
C[C@@]1(N=[N+]=[N-])[C@H](O)[C@@H](COP(=O)(O)OP(=O)(O)OP(=O)(O)O)O[C@H]1n1ccc(=O)[nH]c1=O [Compound 74]			IC50 [2]: 55 µM
COC(=O)[C@H](C)NP(=O)(OC[C@H]1O[C@@H](n2ccc(N)nc2=O)[C@](C)(N=[N+]=[N-])[C@@H]1O)Oc1ccc(Cl)c(Cl)c1 (stereo partly shown)	35	>100	
CC(C)COC(=O)[C@H](C)NP(=O)(OC[C@H]1O[C@@H](n2ccc(=O)[nH]c2=O)[C@](C)(N=[N+]=[N-])[C@@H]1O)Oc1ccccc1 (stereo partly shown) [drawing 892]	0.8	55	
CCOC(=O)[C@H](C)NP(=O)(OC[C@H]1O[C@@H](n2cnc3c(OC)nc(N)nc32)[C@](C)(N=[N+]=[N-])[C@@H]1O)Oc1ccccc1 (stereo partly shown) [drawing 880]	0.4	>100	
CC(C)OC(=O)[C@H](C)NP(=O)(OC[C@H]1O[C@@H](n2ccc(N)nc2=O)[C@](C)(N=[N+]=[N-])[C@@H]1O)Oc1ccccc1Cl (stereo partly shown) [drawing 885]	1.3	>100	
CCOC(=O)c1ccccc1OP(=O)(N[C@@H](C)C(=O)OC)OC[C@H]1O[C@@H](n2ccc(=O)[nH]c2=O)[C@](C)(N=[N+]=[N-])[C@@H]1O (stereo partly shown)	2.8	>100	
CCOC(=O)[C@H](C)NP(=O)(OC[C@H]1O[C@@H](n2cnc3c(OC)nc(N)nc32)[C@](C)(N=[N+]=[N-])C1O)Oc1ccc(Cl)cc1 (stereo partly shown)	1.2	>100	
CCOC(=O)[C@H](C)NP(=O)(OC[C@H]1O[C@@H](n2cnc3c(OCC)nc(N)nc32)[C@](C)(N=[N+]=[N-])[C@@H]1O)Oc1ccccc1 (stereo partly shown) [drawing 881]	1	>100	

SMILES	EC50 (replicon cells (1b-Con1)) [µM]	Cytotoxicity (replicon cells [1]) [µM]	also measured
CCOC(=O)[C@H](C)NP(=O)(OC[C@H]1O[C@@H](n2ccc(N)nc2=O)[C@](C)(N=[N+]=[N-])[C@@H]1O)Oc1ccc(Cl)cc1 (single isomer, unassigned) [Compound 189]			EC50 (HCV replicon cells): 22 µM
COC(=O)[C@H](C)NP(=O)(OC[C@H]1O[C@@H](n2ccc(=O)[nH]c2=O)[C@](C)(N=[N+]=[N-])[C@@H]1O)Oc1cccc2ccccc12 (single isomer, unassigned) [Compound 218]			EC50 (HCV replicon cells): 4.6 µM
CCOP1(=O)OC[C@H]2O[C@@H](n3ccc(=O)[nH]c3=O)[C@](C)(N=[N+]=[N-])[C@@H]2O1 (stereo partly shown) [Compound 568]			EC50 (HCV replicon cells): > 100 µM
CCCC(CCC)COC(=O)[C@H](C)NP(=O)(OC[C@H]1O[C@@H](n2ccc(=O)[nH]c2=O)[C@](C)(N=[N+]=[N-])[C@@H]1O)Oc1ccccc1 (stereo partly shown) [Compound 328]			EC50 (HCV replicon cells; Hepatitis C virus, 72 h): 2.1 µM
COC(=O)[C@H](C)NP(=O)(OC[C@H]1O[C@@H](n2cnc3c(OC)nc(N)nc32)[C@](C)(N=[N+]=[N-])C1O)Oc1cccc2ccccc12 (single isomer, unassigned) [Compound 254]			EC50 (HCV replicon cells; Hepatitis C virus, 72 h): 1 µM
CCOC(=O)[C@H](C)NP(=O)(OC[C@H]1O[C@@H](n2cnc3c(OCC)nc(N)nc32)[C@](C)(N=[N+]=[N-])[C@@H]1O)Oc1ccccc1 (stereo partly shown) [Compound 10]			EC50 (HCV replicon cells; Hepatitis C virus, 72 h): 0.9 µM
CC(C)OC(=O)[C@H](C)NP(=O)(OC[C@H]1O[C@@H](n2ccc(N)nc2=O)[C@](C)(N=[N+]=[N-])[C@@H]1O)Oc1ccc(F)cc1 (stereo partly shown) [Compound 196]			EC50 (HCV replicon cells; Hepatitis C virus, 72 h): 39 µM
C[C@@]1(N=[N+]=[N-])[C@H](O)[C@@H](CO)O[C@H]1n1cnc2c(NC3CC3)nc(N)nc21 [Compound 138]			EC50 (HCV replicon cells; [4]): > 100 µM
CC(C)OC(=O)[C@H](C)NP(=O)(OC[C@H]1O[C@@H](n2ccc(N)nc2=O)[C@](C)(N=[N+]=[N-])[C@@H]1O)Oc1ccccc1Cl (single isomer, unassigned) [Compound 204]			EC50 (HCV replicon cells): 1.3 µM
C[C@@]1(N=[N+]=[N-])[C@H](O)[C@@H](CO)O[C@H]1n1cnc2c(N3CCC3)nc(N)nc21 [Compound 137]			EC50 (HCV replicon cells; [4]): > 100 µM
CCOc1nc(N)nc2c1ncn2[C@@H]1O[C@H](COP(=O)(N[C@@H](C)C(=O)OC)Oc2ccccc2Cl)[C@@H](O)[C@@]1(C)N=[N+]=[N-] (single isomer, unassigned) [Compound 310]			EC50 (HCV replicon cells): 0.93 µM
COC(=O)[C@H](C)NP(=O)(OC[C@H]1O[C@@H](n2ccc(N)nc2=O)[C@](C)(N=[N+]=[N-])[C@@H]1O)Oc1ccccc1Cl (single isomer, unassigned) [Compound 330]			EC50 (HCV replicon cells; Hepatitis C virus, 72 h): 12 µM
CC(C)COC(=O)[C@H](C)NP(=O)(OC[C@H]1O[C@@H](n2ccc(=O)[nH]c2=O)[C@](C)(N=[N+]=[N-])[C@@H]1O)Oc1ccccc1 (stereo partly shown) [Compound 37]			EC50 (HCV replicon cells): 3.5 µM
CCOC(=O)[C@H](C)NP(=O)(OC[C@H]1O[C@@H](n2ccc(=O)[nH]c2=O)[C@](C)(N=[N+]=[N-])[C@@H]1O)Oc1ccc(F)cc1 (stereo partly shown) [Compound 140]			EC50 (HCV replicon cells; Hepatitis C virus, 72 h): 1.4 µM
COc1nc(N)nc2c1ncn2[C@@H]1O[C@@H]2COP(=O)(OC3CCC3)O[C@H]2[C@@]1(C)N=[N+]=[N-] (single isomer, unassigned) [Compound 102]			EC50 (HCV replicon cells; [4]): 11 µM
COc1nc(N)nc2c1ncn2[C@@H]1O[C@H](COP(=O)(N[C@@H](C)C(=O)OCC(C)C)Oc2ccc(Cl)cc2)[C@@H](O)[C@@]1(C)N=[N+]=[N-] (single isomer, unassigned) [Compound 296]			EC50 (HCV replicon cells): 0.1 µM
C[C@@]1(N=[N+]=[N-])[C@@H]2OP(=O)(Oc3ccccc3)OC[C@H]2O[C@H]1n1ccc(N)nc1=O (stereo partly shown) [Compound 65]			EC50 (HCV replicon cells; Hepatitis C virus, 72 h): 56 µM

From patent publication US9156872B2, “2′-azido substituted nucleoside derivatives and methods of use thereof for the treatment of viral diseases” (priority 2011, dated 2015)
